Values quoted from earlier work as cited in patent US20230000814A1, “PHARMACEUTICAL COMPOSITION COMPRISING STEROID COMPOUND AND OLOPATADINE” (TOKO YAKUHIN KOGYO CO., LTD., priority 2019, published 2023).
Read-outs that look alike come from different tables or passages of the source.

For `CN(C)CC/C=C1/c2ccccc2COc2ccc(CC(=O)O)cc21` [olopatadine, Olopatadine], the solubility of olopatadine (around neutral pH) is given as “very low” and the solubility of olopatadine (concentration 0.2% or more as olopatadine free base, solution having pH of 5 or higher) is given as “not soluble”.
